Data reported in patent US20220211478A1, “SURGICAL SYSTEM AND METHODS OF USE” (priority 2021, published 2022).

Legend:
[1] = in vivo
Source text: (§1) However, in some embodiments, however, higher doses of tranexamic acid are used for topical applications to account for tranexamic acid being widely distributed throughout the extracellular and intracellular compartments when given preoperatively.

fibrinolysis = experiment: prevention / reversal of fibrinolysis; conditions: relative to doses of the non-GLP acute porcine study
Source text: as §1

myofibroblast formation = conditions: capsular contracture with breast implants; Ajmal et al. (2003); cited from earlier work

| Structure (SMILES) | time to reach plasma concentrations [1] [min] | dose effective in reversing fibrinolysis (fibrinolysis) | effect on myofibroblast formation (myofibroblast formation) |
| --- | --- | --- | --- |
| NC[C@H]1CC[C@H](C(=O)O)CC1 [tranexamic acid, trans-4-(aminomethyl)cyclohexanecarboxylic acid] | 5 to 15 | one tenth of the doses used in the non-GLP acute porcine study |  |
| O=S(=O)([O-])CCS.[Na+] [MESNA, sodium 2-mercaptoethane sulfonate] |  |  | diminish myofibroblast formation |
